The record followed here is PubChem BioAssay (NCI).

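A five-concentration, 48-hour dose response in 96-well plates underlies each endpoint, interpolated linearly between surrounding concentrations. The concentration for 50% growth inhibition is given as GI50. TGI: total growth inhibition.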

Some test systems named below: UACC-257 melanoma; NCI-H460 lung; SF-295 CNS; NCI/ADR-RES ovarian; KM12 colon; NCI-H522 lung; T-47D breast; LOX IMVI melanoma; SK-OV-3 ovarian; PC-3 prostate.
What all share (experiment): NCI-60 cell line screen, 48 h

As to `C#Cc1cccc(Nc2ncnc3ccc(OCCCCNCCS(C)(=O)=O)cc23)c1`, the GI50 in the experiment with UACC-257 melanoma was 4.39 µM; with NCI-H460 lung, 10.5 µM; with SF-295 CNS, 8.84 µM; in the experiment on NCI/ADR-RES ovarian, 11.4 µM; in the experiment on KM12 colon, 9.74 µM; in the experiment on NCI-H522 lung, 2.97 µM. Moreover, the GI50 in the experiment with T-47D breast was 7.2 µM; with LOX IMVI melanoma it was 4.78 µM; with SK-OV-3 ovarian, 1.28 µM; with PC-3 prostate it was 9.55 µM. Moreover, the TGI was 8.38 µM in the experiment with UACC-257 melanoma; more than 25 µM with NCI-H460 lung; more than 25 µM in the experiment with SF-295 CNS; more than 25 µM with NCI/ADR-RES ovarian; more than 25 µM with KM12 colon; 7.86 µM with NCI-H522 lung. In addition, the TGI with T-47D breast is more than 25 µM; in the experiment on LOX IMVI melanoma, 11.1 µM; with SK-OV-3 ovarian it was more than 25 µM; in the experiment with PC-3 prostate, more than 25 µM.

For the compound `COc1c(/C=C/C=O)cc2c(c1OC)OCO2`, the TGI with UACC-257 melanoma is more than 100 µM; in the experiment on NCI-H460 lung, more than 100 µM; in the experiment on SF-295 CNS, 52.1 µM; in the experiment with NCI/ADR-RES ovarian, more than 100 µM; with KM12 colon, 29.4 µM; in the experiment on NCI-H522 lung it was more than 100 µM. Besides, the TGI in the experiment on T-47D breast is more than 100 µM; with LOX IMVI melanoma, 76 µM; in the experiment on SK-OV-3 ovarian, more than 100 µM; with PC-3 prostate it was more than 100 µM.

Consider `CN(C)CC(=O)Nc1ccc2ncnc(Nc3ccc(Oc4cccc(C(F)(F)F)c4)c(Cl)c3)c2c1`, for which the GI50 was 2.05 µM with UACC-257 melanoma; 1.76 µM in the experiment with NCI-H460 lung; 2.02 µM with SF-295 CNS; 3.06 µM in the experiment with NCI/ADR-RES ovarian; 1.91 µM in the experiment with KM12 colon; 1.8 µM with NCI-H522 lung. Further, the values for the GI50 in the experiment with T-47D breast, in the experiment on LOX IMVI melanoma and in the experiment with PC-3 prostate were 1.31 µM, 1.73 µM and 1.82 µM, respectively. Further, the TGI was 4.25 µM in the experiment with UACC-257 melanoma; 3.45 µM in the experiment with NCI-H460 lung; 4.28 µM in the experiment with SF-295 CNS; 13.2 µM with NCI/ADR-RES ovarian; 4 µM in the experiment with KM12 colon; 5.37 µM in the experiment with NCI-H522 lung. The TGI in the experiment on T-47D breast came to 3.74 µM; with LOX IMVI melanoma, 3.13 µM; in the experiment with PC-3 prostate, 4.5 µM.

Turning to `CC1=C(C)C(=O)O[C@@H]([C@](C)(O)[C@]2(O)CC[C@@]3(O)[C@@H]4C[C@H](O)[C@]5(O)[C@@H](O)C=CC(=O)[C@]5(C)[C@H]4CC[C@]23C)C1`, the TGI in the experiment on UACC-257 melanoma, in the experiment on NCI-H460 lung, in the experiment on SF-295 CNS, with KM12 colon, in the experiment with NCI-H522 lung and in the experiment on T-47D breast was more than 100 µM each time. In addition, the TGI with LOX IMVI melanoma, in the experiment on SK-OV-3 ovarian and in the experiment with PC-3 prostate was more than 100 µM in each case.

As for `Cc1ccc2cccc(OC(=O)Nc3cccc(C(F)(F)F)c3)c2n1`, the GI50 was 3.4 µM in the experiment with UACC-257 melanoma; 2.84 µM with NCI-H460 lung; 2.5 µM in the experiment on SF-295 CNS; 3.96 µM with NCI/ADR-RES ovarian; 3.19 µM in the experiment on KM12 colon; 3.05 µM with T-47D breast. The GI50 is 4.37 µM in the experiment on SK-OV-3 ovarian and 2.74 µM in the experiment with PC-3 prostate. Moreover, the TGI in the experiment on UACC-257 melanoma turned out to be 12.9 µM; in the experiment with NCI-H460 lung, 7.8 µM; in the experiment with SF-295 CNS, 7.25 µM; in the experiment on NCI/ADR-RES ovarian it was 33.3 µM; with KM12 colon, 10.9 µM; in the experiment with T-47D breast, 13.4 µM. The TGI in the experiment with SK-OV-3 ovarian came out at 16.2 µM; in the experiment with PC-3 prostate, 9.79 µM.

On to `COc1ccc(C2CC(c3ccc(Nc4ccnc5cc(Cl)ccc45)cc3)=NN2C=O)cc1` (stereo unspecified), for which the GI50 in the experiment on UACC-257 melanoma was 43.9 µM; in the experiment with NCI-H460 lung it was more than 100 µM; with SF-295 CNS it was 24.8 µM; in the experiment with NCI/ADR-RES ovarian it was 7.05 µM; in the experiment on KM12 colon, 16.5 µM; in the experiment with T-47D breast, 1.38 µM. The GI50 in the experiment with LOX IMVI melanoma was 2.32 µM; in the experiment on SK-OV-3 ovarian, more than 100 µM; in the experiment on PC-3 prostate it was 9.43 µM. Further, the TGI is more than 100 µM in the experiment with UACC-257 melanoma; more than 100 µM in the experiment on NCI-H460 lung; more than 100 µM in the experiment with SF-295 CNS; more than 100 µM with NCI/ADR-RES ovarian; more than 100 µM in the experiment with KM12 colon; 15 µM in the experiment with T-47D breast. The TGI in the experiment on LOX IMVI melanoma is 15.6 µM; with SK-OV-3 ovarian, more than 100 µM; in the experiment on PC-3 prostate it was more than 100 µM.

In the case of `O=C(NCCCl)Nc1cccnc1`, the TGI came to 72.2 µM with UACC-257 melanoma; 94.5 µM in the experiment on SF-295 CNS; 47.7 µM in the experiment on NCI/ADR-RES ovarian; 41.5 µM in the experiment with KM12 colon; 62.1 µM with NCI-H522 lung; 59.5 µM with T-47D breast. Also, the TGI in the experiment with LOX IMVI melanoma was 55.3 µM; in the experiment with SK-OV-3 ovarian it was 43.5 µM; in the experiment on PC-3 prostate it was more than 100 µM.

As to `C=C1C(=O)O[C@H]2[C@H](OC(C)=O)[C@@H](C)CCCC3(C)OC3CCC3(CO3)[C@H](O)C[C@@H]12` (stereo partly specified), the GI50 is 17.3 µM in the experiment on UACC-257 melanoma; 12.9 µM in the experiment on NCI-H460 lung; 11.4 µM in the experiment on SF-295 CNS; 13.6 µM in the experiment with KM12 colon; 9.6 µM with NCI-H522 lung; 13.7 µM in the experiment on T-47D breast. Moreover, the GI50 in the experiment on LOX IMVI melanoma is 12.6 µM; in the experiment with SK-OV-3 ovarian, 21.2 µM; in the experiment on PC-3 prostate, 4.4 µM. Also, the TGI in the experiment on UACC-257 melanoma came to 49.9 µM; in the experiment with NCI-H460 lung, 36 µM; in the experiment with SF-295 CNS, 28.3 µM; with KM12 colon, 28.5 µM; with NCI-H522 lung it was 28.7 µM; in the experiment with T-47D breast, 62.5 µM. Further, the TGI is 25.2 µM in the experiment on LOX IMVI melanoma, 62 µM in the experiment on SK-OV-3 ovarian and 18 µM in the experiment on PC-3 prostate.

With `COC(=O)[C@]12CC[C@@H](C)[C@H](C)[C@@H]1C1=CC[C@@H]3[C@@]4(C)C[C@@H](OC(=O)/C=C/c5ccccc5)[C@H](O)[C@@](C)(CO)[C@@H]4[C@H](O)C[C@@]3(C)[C@]1(C)CC2`, the GI50 was 2.12 µM with NCI-H460 lung; 2.27 µM with SF-295 CNS; 2.92 µM in the experiment with NCI/ADR-RES ovarian; 2.05 µM in the experiment on KM12 colon; 1.53 µM with NCI-H522 lung; 2.34 µM in the experiment with T-47D breast. Besides, the GI50 in the experiment on LOX IMVI melanoma is 1.69 µM; in the experiment with SK-OV-3 ovarian it was 3.91 µM; with PC-3 prostate, 2.55 µM. Further, the TGI in the experiment on NCI-H460 lung was determined as 4.7 µM; in the experiment with SF-295 CNS, 5.75 µM; in the experiment with NCI/ADR-RES ovarian, 10.9 µM; in the experiment on KM12 colon, 5.36 µM; in the experiment with NCI-H522 lung, 3.36 µM; in the experiment on T-47D breast, 10.9 µM. The values for the TGI in the experiment with LOX IMVI melanoma, in the experiment on SK-OV-3 ovarian and with PC-3 prostate were 3.1 µM, 14.3 µM and 8.93 µM, respectively.
